According to PubChem BioAssay AID330 (DTP/NCI, 2004):
Values joined by “and” are separate entries in the source; they are usually repeats but may differ in a detail not shown here. Equal entries are not always repeated. Inconclusive results and toxic doses are left out. Rule for the calls: active = survival T/C of 150% or more; inactive = T/C below 125% in these data.

System: P388 leukemia ip, CD2F1 mice, survival T/C
Assay: NCI In Vivo Anticancer Drug Screen. Data for tumor model P388 Leukemia (intraperitoneal) in CD2F1 (CDF1) mice
Settings: endpoint: median survival time, higher = longer survival
Procedure, shortened: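 Mice carrying the transplanted tumor received test compound or vehicle. Survival was recorded in each group, and the value is the treated-group measurement divided by that of the vehicle-treated control group.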

[1] = dose: 100.0 mg/kg/injection, schedule: Q04DX003 (ip), vehicle: saline with Tween-80
[2] = dose: 200.0 mg/kg/injection, schedule: Q04DX003 (ip), vehicle: saline with Tween-80
[3] = dose: 50.0 mg/kg/injection, schedule: Q01DX005 (ip), vehicle: saline with Tween-80
[4] = dose: 100.0 mg/kg/injection, schedule: Q01DX005 (ip), vehicle: saline with Tween-80
[5] = dose: 200.0 mg/kg/injection, schedule: Q01DX005 (ip), vehicle: saline with Tween-80
[6] = dose: 60.0 mg/kg/injection, schedule: Q01DX005 (ip), vehicle: saline with Tween-80
[7] = dose: 120.0 mg/kg/injection, schedule: Q01DX005 (ip), vehicle: saline with Tween-80
[8] = dose: 12.5 mg/kg/injection, schedule: Q01DX009 (ip), vehicle: saline with Tween-80
[9] = dose: 25.0 mg/kg/injection, schedule: Q01DX009 (ip), vehicle: saline with Tween-80
[10] = dose: 50.0 mg/kg/injection, schedule: Q01DX009 (ip), vehicle: saline with Tween-80
[11] = dose: 100.0 mg/kg/injection, schedule: Q01DX009 (ip), vehicle: saline with Tween-80
[12] = dose: 25.0 mg/kg/injection, schedule: Q01DX009 (ip), vehicle: saline
[13] = dose: 50.0 mg/kg/injection, schedule: Q01DX009 (ip), vehicle: saline
[14] = dose: 100.0 mg/kg/injection, schedule: Q01DX009 (ip), vehicle: saline
[15] = dose: 200.0 mg/kg/injection, schedule: Q01DX009 (ip), vehicle: saline with Tween-80
[16] = dose: 200.0 mg/kg/injection, schedule: Q01DX009 (ip), vehicle: saline
[17] = dose: 50.0 mg/kg/injection, schedule: Q01DX005 (ip), vehicle: Klucel (hydroxypropylcellulose) (HPC)
[18] = dose: 100.0 mg/kg/injection, schedule: Q01DX005 (ip), vehicle: Klucel (hydroxypropylcellulose) (HPC)
[19] = dose: 200.0 mg/kg/injection, schedule: Q01DX005 (ip), vehicle: Klucel (hydroxypropylcellulose) (HPC)
[20] = dose: 12.5 mg/kg/injection, schedule: Q01DX009 (ip), vehicle: saline
[21] = dose: 240.0 mg/kg/injection, schedule: Q01DX005 (ip), vehicle: saline with Tween-80

Measured: T/C

COc1cc(/C=C(\C)[N+](=O)[O-])cc(Br)c1O
inactive: [1] 100 % of control | [2] 109 % of control | dose: 400.0 mg/kg/injection, schedule: Q04DX003 (ip), vehicle: saline with Tween-80 94 % of control

Nc1ccc2ccccc2c1-c1cccc2ccccc12
inactive: [3] 96 % of control | [4] 96 % of control | dose: 100.0 mg/kg/injection, schedule: Q04DX002 (ip), vehicle: saline with Tween-80 102 % of control | [5] 102 % of control | dose: 200.0 mg/kg/injection, schedule: Q04DX002 (ip), vehicle: saline with Tween-80 102 % of control | dose: 400.0 mg/kg/injection, schedule: Q04DX002 (ip), vehicle: saline with Tween-80 92 % of control

O=C1C2=C(Nc3cc([N+](=O)[O-])ccc3N2)OC1c1c[nH]c2ccc(COc3ccccc3)cc12 (configuration not stated)
inactive: [6] 93 % of control | [7] 94 % of control

Cc1ccc(SSC(=S)Nc2ccccc2)cc1
inactive: [8] 93 % of control | [9] 90 % of control | [10] 100 % of control and 114 % of control | [11] 114 % of control

NNC(=O)CC(N)C(=O)O (configuration not stated)
inactive: [12] 100 % of control | [10] 110 % of control | [13] 105 % of control and 122 % of control | [11] 108 % of control | [14] 109 % of control and 122 % of control | [15] 117 % of control | [16] 116 % of control | dose: 400.0 mg/kg/injection, schedule: Q01DX009 (ip), vehicle: saline 107 % of control

Cc1nc(Nc2ccccc2Cl)c2ccsc2n1
inactive: [17] 100 % of control | [18] 93 % of control | [19] 87 % of control

Cc1c(NC(=O)Nc2ccc(F)cc2[N+](=O)[O-])c(=O)n(-c2ccccc2)n1C
inactive: [10] 109 % of control | [11] 112 % of control | [15] 97 % of control

Cc1ccc(S(=O)(=O)N2CCCCN(S(=O)(=O)c3ccc(C)cc3)COC2)cc1
inactive: [17] 101 % of control | [18] 101 % of control | [19] 102 % of control

Cc1ccc2c(c1)C(=S)NC(=O)C2
inactive: dose: 12.5 mg/kg/injection, schedule: Q01DX009 (ip), vehicle: distilled water + Tween-80 87 % of control | dose: 50.0 mg/kg/injection, schedule: Q01DX009 (ip), vehicle: distilled water + Tween-80 93 % of control | dose: 100.0 mg/kg/injection, schedule: Q01DX009 (ip), vehicle: distilled water + Tween-80 91 % of control | dose: 200.0 mg/kg/injection, schedule: Q01DX009 (ip), vehicle: distilled water + Tween-80 95 % of control

COc1ccc2c(c1)CCC1(C)CC(=O)C(Br)=C21 (configuration not stated)
inactive: dose: 6.25 mg/kg/injection, schedule: Q01DX009 (ip), vehicle: Klucel (hydroxypropylcellulose) (HPC) 109 % of control and 112 % of control and 114 % of control | dose: 12.5 mg/kg/injection, schedule: Q01DX009 (ip), vehicle: Klucel (hydroxypropylcellulose) (HPC) 100 % of control and 107 % of control and 114 % of control | dose: 25.0 mg/kg/injection, schedule: Q01DX009 (ip), vehicle: Klucel (hydroxypropylcellulose) (HPC) 102 % of control and 107 % of control | dose: 50.0 mg/kg/injection, schedule: Q01DX009 (ip), vehicle: Klucel (hydroxypropylcellulose) (HPC) 106 % of control

Cc1cc2c3c([nH]c2cc1[N+](=O)[O-])CCCC3=O
inactive: dose: 25.0 mg/kg/injection, schedule: Q01DX005 (ip), vehicle: Klucel (hydroxypropylcellulose) (HPC) 88 % of control | [17] 88 % of control | [18] 86 % of control | [19] 90 % of control

O=c1[nH]n(CCc2ccccn2)c(=O)c(Cl)c1Cl
inactive: [3] 96 % of control | [4] 100 % of control | [5] 92 % of control

CCN(CC)CC(COC)Oc1cc(C)ccc1C(C)C (configuration not stated)
inactive: dose: 50.0 mg/kg/injection, schedule: Q04DX003 (ip), vehicle: saline with Tween-80 104 % of control | [1] 95 % of control | [2] 109 % of control

COC1(OC)CC(CCl)OC1(OC)OC (configuration not stated)
inactive: dose: 60.0 mg/kg/injection, schedule: Q01DX005 (ip), vehicle: saline 103 % of control | dose: 120.0 mg/kg/injection, schedule: Q01DX005 (ip), vehicle: saline 103 % of control | dose: 240.0 mg/kg/injection, schedule: Q01DX005 (ip), vehicle: saline 101 % of control

C=C(c1ccc(OC)cc1)C(CC)c1ccc(OC)cc1 (configuration not stated)
inactive: [6] 101 % of control | [7] 100 % of control

COC(=O)c1cc(C)n(Cc2ccccc2)c1
inactive: dose: 100.0 mg/kg/injection, schedule: Q01DX001 (ip), vehicle: saline with Tween-80 97 % of control | dose: 200.0 mg/kg/injection, schedule: Q01DX001 (ip), vehicle: saline with Tween-80 99 % of control | dose: 400.0 mg/kg/injection, schedule: Q01DX001 (ip), vehicle: saline with Tween-80 97 % of control

CC(/C=C/c1ccccc1)=N\Nc1ccccc1
inactive: [10] 118 % of control | [11] 110 % of control and 112 % of control | dose: 132.0 mg/kg/injection, schedule: Q01DX009 (ip), vehicle: saline with Tween-80 100 % of control | [15] 100 % of control and 110 % of control and 121 % of control | dose: 300.0 mg/kg/injection, schedule: Q01DX009 (ip), vehicle: saline with Tween-80 107 % of control | dose: 400.0 mg/kg/injection, schedule: Q01DX009 (ip), vehicle: saline with Tween-80 106 % of control

O=[N+]([O-])c1ccc(C2CC(c3ccccc3)=Nc3ccccc3S2)cc1 (configuration not stated)
inactive: [20] 97 % of control | [12] 92 % of control | [13] 97 % of control

COc1nc(Cl)cn(C)c1=O
inactive: dose: 15.0 mg/kg/injection, schedule: Q01DX005 (ip), vehicle: saline with Tween-80 101 % of control | dose: 30.0 mg/kg/injection, schedule: Q01DX005 (ip), vehicle: saline with Tween-80 98 % of control | dose: 60.0 mg/kg/injection, schedule: Q01DX005 (ip), vehicle: Klucel (hydroxypropylcellulose) (HPC) 95 % of control | [6] 107 % of control | dose: 120.0 mg/kg/injection, schedule: Q01DX005 (ip), vehicle: Klucel (hydroxypropylcellulose) (HPC) 106 % of control

NCCSCC(N)C(=O)O (configuration not stated)
inactive: [12] 102 % of control | [13] 103 % of control | [14] 99 % of control | [16] 109 % of control

ClC(Cl)(Cl)Cl
inactive: dose: 0.37 % in 0.5 ml injection vol, schedule: Q01DX009 (ip), vehicle: water 103 % of control | dose: 0.75 % in 0.5 ml injection vol, schedule: Q01DX009 (ip), vehicle: water 103 % of control | dose: 1.5 % in 0.5 ml injection vol, schedule: Q01DX009 (ip), vehicle: water 104 % of control

CN(C)c1nc(=O)c(-c2ccccc2)c(-c2ccccc2)o1
inactive: dose: 100.0 mg/kg/injection, schedule: Q04DX002 (ip), vehicle: Klucel (hydroxypropylcellulose) (HPC) 103 % of control | dose: 200.0 mg/kg/injection, schedule: Q04DX002 (ip), vehicle: Klucel (hydroxypropylcellulose) (HPC) 106 % of control | dose: 400.0 mg/kg/injection, schedule: Q04DX002 (ip), vehicle: Klucel (hydroxypropylcellulose) (HPC) 103 % of control

Nc1ccc2c(c1)C(O)c1cccc(C(=O)O)c1-2 (configuration not stated)
inactive: [6] 96 % of control | [7] 101 % of control | [21] 94 % of control

CNC(=S)NNc1nnc(NNC(=S)NC)c2ccccc12
inactive: [13] 94 % of control | [14] 97 % of control | [16] 102 % of control

NNC(=O)CC(NN)c1ccccc1O (configuration not stated)
inactive: [6] 104 % of control | [7] 105 % of control | [21] 105 % of control

O=c1cccccc1O
inactive: [20] 105 % of control and 107 % of control | [12] 100 % of control

C[N+]1(C)N=C([O-])N(c2ccccc2C(F)(F)F)C1=O
inactive: [8] 99 % of control | [9] 99 % of control | [10] 106 % of control

O=C1C2C3(CCl)C1C23CCl (configuration not stated)
inactive: dose: 7.5 mg/kg/injection, schedule: Q01DX005 (ip), vehicle: Klucel (hydroxypropylcellulose) (HPC) 108 % of control | dose: 15.0 mg/kg/injection, schedule: Q01DX005 (ip), vehicle: Klucel (hydroxypropylcellulose) (HPC) 104 % of control | dose: 30.0 mg/kg/injection, schedule: Q01DX005 (ip), vehicle: Klucel (hydroxypropylcellulose) (HPC) 108 % of control

COc1ccccc1-n1c(Cc2cccc3ccccc23)nnc1SCC(=O)O
inactive: [17] 100 % of control | [18] 100 % of control | [19] 100 % of control
